Results: patent US9820997B2, “Pharmaceutical composition for treating disease associated with demyelination of neurons and method of using the pharmaceutical composition” (Samsung Electronics Co., Ltd., priority 2014, dated 2017)

Tests used:
[1] = test system: PMP22; experiment: PMP22 protein amount in PMP22-overexpressing SH-SY5Y cells by Western blot; type: cell-based, human; conditions: for amount of the PMP22 protein compared to negative control and positive control (AA): FIGS. 5A/5B
Description: (§1) SH-SY5Y cells were inoculated at a concentration of 10^5 cells/ml in each well of a 12-well plate including 2 ml of a DMEM medium containing 10% FBS, 100 units/ml of penicillin, and 100 units/ml of streptomycin and incubated until the cell density was about 60% to about 65% in a 5% CO2 incubator at 37°. Then, dapsone (4,4′-diaminodiphenylsulfone, DDS) (available from Sigma), MADDS (available from Sigma), SSZ (available from Sigma), and SCM (available from Sigma) were respectively added to the wells at various concentrations and incubated for 24 hours under the same conditions. Vitamin C (ascorbic acid, AA) (available from Sigma) was used as the positive control group. Vitamin C is known as having an effect of treating peripheral neuropathy by using a cAMP modulator. SH-SY5Y cells are a human-derived cell line used in scientific research. The original cell line, SK-N-SH from which SH-SY5Y cells were subcloned, was isolated from a bone marrow biopsy taken from a person with neuroblastoma. SH-SY5Y cells are often used as in vitro models of neuronal function and differentiation. The SH-SY5Y cells used herein have been modified to consistently overexpress the human PMP22 gene by lentiviral mediated integration of PMP22 into a chromosome.
After removing 2 ml of the culture medium, the SH-SY5Y cells were washed with phosphate buffered saline (PBS), and a lysis solution, 0.5% Triton X-100, in PBS was added thereto. Then, cells were collected using a scraper, left in ice for 30 minutes, and then, the cells were disrupted. Using a bicinchoninic acid (BCA) protein assay, the amount of protein in each sample was normalized to 1 ug/ul. SDS-PAGE (Invitrogen) was performed on the sample, and then Western blotting was performed with rabbit anti-PMP22 (Novus biological) and rabbit anti-actin (Sigma) primary antibodies, and an anti-rabbit secondary antibody.

[2] = test system: Zebrafish (Danio rerio); experiment: Remyelination in MTZ-demyelinated genetically engineered zebrafish, confocal fluorescence; type: in vivo; conditions: demyelinated central and peripheral nervous system; 10 uM
[3] = test system: PMP22 mRNA; experiment: PMP22 mRNA expression in SH-SY5Y cells by RT-PCR; type: cell-based, human; conditions: according to DDS concentration; FIG. 2
Description: as §1, with “SH-SY5Y cells are often used as in vitro models of neuronal function and differentiation. The SH-SY5Y cells used herein have been modified to consistently overexpress the human PMP22 gene by lentiviral mediated integration of PMP22 into a chromosome.” left out
Also, RNA from treated and untreated SH-SY5Y cells was extracted by with Trizol (Invitrogen). PM22 gene expression was analyzed by using a one-step RT-PCR kit (Qiagen), whereby the extracted RNA was mixed with a PMP22 gene specific primer set of SEQ ID NOS: 1 and 2, and a real time-PCR (RT-PCR) was performed to confirm the degree of mRNA expression.

[4] = test system: Tr-J mice (CMT mouse model); experiment: Twitch/tetanus isometric force of soleus muscle; type: in vivo; conditions: 50 mg/kg, 2 months, vs placebo-treated mice, FIG. 11
[5] = test system: Tr-J mice (CMT mouse model); experiment: Sciatic nerve morphology by toluidine blue staining and g-ratio; type: in vivo; conditions: 50 mg/kg, 2 months
Source text: In this example, the effect of sulfasalzine on the CMT was investigated using Trembler-J (Tr-J) mice. The Tr-J mouse has a missense mutation in the murine peripheral myelin protein-22 gene (Pmp22). Pmp22 mutations are believed to cause the neuropathies of Charcot-Marie-tooth disease in humans (Nature 356, 241-244 (19 Mar. 1992); doi:10.1038/356241a0). Two month old heterozygous Tr^J mice in the C57BL/6J background were obtained from Jackson Laboratories (Bar Harbor, Me.). Matings between Tr-J heterozygous females and males in the C57BL/6 genetic background were implemented to generate Tr-J heterozygous and wild-type controls.
Sulfasalazine was obtained from Sigma-Aldrich, St. Louis. Sulfasalazine (50 mg/kg daily) was administered orally to female mice (n=4-5 per group) via sulfasalazine-containing drinking water. Before sulfasalazine oral intervention, weight and daily water intake of the mice was measured to determine the dose of sulfasalazine. Each Tr-J and WT mice were administered sulfasalazine drinking water for 2 months (50 mg/kg daily).
After 2 months oral intervention, sciatic nerves were harvested from mice (WT+/−50 mg/kg sulfasalazine and Trembler J+/−50 mg/kg sulfasalazine). Nerves were fixed in 2% (w/v) glutaraldehyde in 0.1 M phosphate buffer (pH 7.4) for 4 h, followed by washing with 0.1 M phosphate buffer. […] Sample sections were evaluated using light microscopy.

[6] = test system: Tr-J mice (CMT mouse model); experiment: Rotarod test in mice; type: in vivo; conditions: 50 mg/kg per day orally for 2 months

In the case of `CC(=O)NS(=O)(=O)c1ccc(N)cc1` [SCM, N-[(4-aminophenyl)sulfonyl]acetamide], the “amount of the PMP22 protein compared to the control group” value ([1]; vs DMSO control, FIGS. 4A/4B) is reported as “decreased” and the “effect on the promotion of remyelination” value [2] is reported as “confirmed”.
In the case of `CC(=O)Nc1ccc(S(=O)(=O)c2ccc(N)cc2)cc1` [MADDS, mono N-acetyldapsone], the “amount of the PMP22 protein compared to negative control and positive control (AA)” value [1] is reported as “significantly decreased” and the “effect on the promotion of remyelination” value [2] is reported as “confirmed”.
In the case of `Nc1ccc(S(=O)(=O)c2ccc(N)cc2)cc1` [DDS, 4,4′-diaminodiphenylsulfone], the “amount of the PMP22 protein compared to negative control and positive control (AA)” value [1] is reported as “significantly decreased”, the “amount of PMP22 protein” value ([1]; as the concentration of DDS increases, 24 hours, n=4, FIGS. 1A/1B) is reported as “decreased” and the “effect on the promotion of remyelination” value [2] is reported as “confirmed”. For the same compound, the “expression of PM22 mRNA” value [3] was “did not show a significant difference”.
With `O=C(O)c1cc(/N=N/c2ccc(S(=O)(=O)Nc3ccccn3)cc2)ccc1O` [SSZ] the “tetanus contraction in Soleus tendon” value [4] was “significantly increased”, the “twitch contraction in Soleus tendon” value [4] was “significantly increased” and the “g-ratio of sciatic nerve” value ([5]; Tr-J mice, vs vehicle treated Tr-J mice, FIG. 10C) was “significantly lower”. For the same compound, the “number of myelinated axons in sciatic nerve” value ([5]; Tr-J mouse, vs vehicle-treated Tr-J mouse, FIG. 10A) was “significantly increased”, the “effect on the promotion of remyelination” value [2] was “confirmed” and the time on rod ([6]; Tr-J mice, vs placebo-treated Tr-J mice) was “significantly increased”. The time on rod ([6]; WT mice, vs placebo-treated WT mice) was “decreased”.
